From patent US11724987B2, “Compositions and methods of treating retinal disease” (Aldeyra Therapeutics, Inc., priority 2005, dated 2023)
Each block holds one compound with its values, some of them ahead of it.

Columns and labels:
[1] = vendor value; cited from earlier work
[2] = test system: human retinal vision; details: human occupational exposure, absorbed by the skin; cited from earlier work
[3] = test system: dark adapted rats; assay: ERG analysis of dark adaptation, dose ranging protocol; type: in vivo, rat; details: i.p.
Experimental: Dark adaptation is the recovery of visual sensitivity following exposure to light. Dark adaptation has multiple components including both fast (neuronal) processes and slow (photochemical) process. Regeneration of visual pigment is related to the slow photochemical process. Dark adaptation rates are measured for several reasons. Night blindness results from a failure to dark adapt (loss of visual light sensitivity). It is possible to find a safe dose for night vision by measuring drug effects on dark adapted visual light sensitivity.
An electroretinogram (ERG) is used measure dark adaptation under normal vs. drug conditions. ERG is the measurement of the electric field potential emitted by retinal neurons during their response to an experimentally defined light stimulus. More specifically, ERG measures retinal field potentials at the cornea after a flash of light (e.g., 50 ms). Field strengths are 10^2 to 10^3 microvolts, originating in retinal cells.
In a typical ERG analysis of dark adaptation experiment, every rat is dark adapted for hours to reach a consistent state of light sensitivity. […]
The ERG measurement is taken after a specific duration of post-bleach dark recovery (e.g., 30 min) determined previously by kinetic analysis (see FIGS. 6a and 6b). […]

[4] = NMR analysis of RAL reactions (Schiff base condensation and ring formation); details: for tau (minutes) condense: Schiff base condensation with RAL; for tau (minutes) ring: ring formation after condensation with RAL
[5] = negative control; cited from earlier work

SMILES: COC(=O)c1nc(N)sc1Cl [Compound 2]
calculated logP vendor [1]: 1.3

SMILES: Nc1nccs1 [Compound 3]
calculated logP vendor [1]: 0.8

duration of effect on vision ([3]; rats, ERG): decreases after 3 hours
SMILES: CCOC(=O)c1cccc(N)c1 [Compound 6, tricaine methane sulfonate]
effect on night vision [2]: attenuates night vision reversibly
calculated logP vendor [1]: 1.8
ERG light sensitivity of dark adapted rats ([3]; dose ranging, FIG. 7): lowers light sensitivity of dark adapted rats in a dose dependent manner

SMILES: CCOC(=O)c1csc(N)n1 [Compound 1]
calculated logP vendor [1]: 1.2

SMILES: CC(C)(O)c1nc2ccc(Cl)cc2cc1N [Compound 9]
tau (minutes) condense [4]: 320 min
tau (minutes) ring [4]: 568 min

SMILES: CCN(CC)CC(=O)Nc1c(C)cccc1C [lidocaine]
Schiff base formation [5]: does not form a Schiff base

SMILES: CC(C)(O)c1ccccc1N [Compound 8]
tau (minutes) condense [4]: 122 min
tau (minutes) ring [4]: 109 min

SMILES: CCOC(=O)Cc1csc(N)n1 [Compound 4]
calculated logP vendor [1]: 1.4
